From ChEMBL document CHEMBL1201862, “PubChem BioAssay data set” (2004)
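Each compound was tested at five concentrations against cells in 96-well plates for 48 hours. GI50 is the concentration that inhibits growth by half.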 Active and inactive are the calls of the source. No stated cut-off is given here; in the data, active = GI50 up to about 1.1 µM and inactive = higher.

Experiments:
Assay in all cases: growth of human tumour cells (NCI), 48 h
[1] = tested on: 786-0
[2] = tested on: A498
[3] = tested on: A549
[4] = tested on: ACHN
[5] = tested on: CAKI-1
[6] = tested on: CCRF-CEM
[7] = tested on: COLO 205
[8] = tested on: DLD-1
[9] = tested on: DMS-114
[10] = tested on: DMS-273
[11] = tested on: EKVX
[12] = tested on: HCC 2998
[13] = tested on: HCT-116
[14] = tested on: HCT-15
[15] = tested on: HL-60
[16] = tested on: HOP-18
[17] = tested on: HOP-62
[18] = tested on: HOP-92
[19] = tested on: HT-29
[20] = tested on: IGROV-1
[21] = tested on: K562
[22] = tested on: KM-20L2
[23] = tested on: KM12
[24] = tested on: LOX IMVI
[25] = tested on: LXFL 529
[26] = tested on: M14
[27] = tested on: M19-MEL
[28] = tested on: MOLT-4
[29] = tested on: Malme-3M
[30] = tested on: NCI-H226
[31] = tested on: NCI-H23
[32] = tested on: NCI-H460
[33] = tested on: NCI-H522
[34] = tested on: OVCAR-3
[35] = tested on: OVCAR-4
[36] = tested on: OVCAR-5
[37] = tested on: OVCAR-8
[38] = tested on: RPMI-8226
[39] = tested on: RXF 393
[40] = tested on: SF-268
[41] = tested on: SF-295
[42] = tested on: SF-539
[43] = tested on: SK-MEL-28
[44] = tested on: SK-MEL-2
[45] = tested on: SK-MEL-5
[46] = tested on: SK-OV-3
[47] = tested on: SN12C
[48] = tested on: SNB-19
[49] = tested on: SNB-75
[50] = tested on: SNB-78
[51] = tested on: SR
[52] = tested on: SW-620
[53] = tested on: TK-10
[54] = tested on: U-251
[55] = tested on: UACC-257
[56] = tested on: UACC-62
[57] = tested on: UO-31
[58] = tested on: BT-549
[59] = tested on: DU-145
[60] = tested on: Hs-578T
[61] = tested on: MDA-MB-231
[62] = tested on: MDA-MB-435
[63] = tested on: MDA-N
[64] = tested on: NCI/ADR-RES
[65] = tested on: PC-3
[66] = tested on: T47D
[67] = tested on: XF498
[68] = tested on: MCF7

Measured: GI50

NS(=O)(=O)c1ccc(NC2=CC(=O)C(=O)c3ccccc32)cc1
> 100 µM: [14]
inactive: [1] > 100 µM | [2] > 100 µM | [3] > 100 µM | [4] > 100 µM | [5] > 100 µM | [6] > 100 µM | [7] > 100 µM | [8] > 100 µM | [9] 43.2 µM | [10] > 100 µM | [11] > 100 µM | [12] > 100 µM | [13] 76.4 µM | [15] > 100 µM | [16] > 100 µM | [17] > 100 µM | [18] > 100 µM | [19] > 100 µM | [20] > 100 µM | [21] > 100 µM | [22] > 100 µM | [23] > 100 µM | [24] > 100 µM | [25] > 100 µM | [26] > 100 µM | [27] > 100 µM | [28] 72.1 µM | [29] > 100 µM | [30] > 100 µM | [31] > 100 µM | [32] > 100 µM | [33] > 100 µM | [34] > 100 µM | [35] > 100 µM | [36] > 100 µM | [37] > 100 µM | [38] > 100 µM | [39] > 100 µM | [40] > 100 µM | [41] > 100 µM | [42] > 100 µM | [43] > 100 µM | [44] > 100 µM | [45] > 100 µM | [46] > 100 µM | [47] > 100 µM | [48] > 100 µM | [49] > 100 µM | [50] > 100 µM | [51] > 100 µM | [52] > 100 µM | [53] > 100 µM | [54] > 100 µM | [55] > 100 µM | [56] > 100 µM | [57] > 100 µM

CC(C)=CC(=O)OC1C2C(C)=CC(=O)C(O)C2(C)C2C3(O)OCC24C(CC(=O)OC14)C(C)C3O (stereo not given)
0.0426 µM: [14]
active: [1] 0.01 µM | [2] 0.117 µM | [3] 0.152 µM | [4] 0.022 µM | [58] 0.00287 µM | [6] 0.00859 µM | [7] 0.0975 µM | [8] 0.0211 µM | [10] 0.00348 µM | [59] 0.00354 µM | [11] 0.0577 µM | [12] 0.0128 µM | [13] 0.00519 µM | [15] 0.00269 µM | [17] 0.00942 µM | [18] 0.00684 µM | [19] 0.0104 µM | [60] 0.00225 µM | [20] 0.00849 µM | [21] 0.00521 µM | [22] 0.0316 µM | [23] 0.0139 µM | [24] 0.0015 µM | [26] 0.0023 µM | [61] 0.0168 µM | [62] 0.003 µM | [63] 0.00208 µM | [28] 0.0011 µM | [30] 0.00984 µM | [31] 0.00655 µM | [32] 0.0294 µM | [33] 0.00283 µM | [64] 0.0724 µM | [34] 0.00624 µM | [35] 0.0135 µM | [36] 0.0101 µM | [37] 0.017 µM | [65] 0.00289 µM | [38] 0.00755 µM | [39] 0.0149 µM | [40] 0.029 µM | [41] 0.0277 µM | [42] 0.00505 µM | [43] 0.00461 µM | [44] 0.0179 µM | [45] 0.00308 µM | [46] 0.213 µM | [47] 0.0479 µM | [48] 0.00349 µM | [49] 0.0141 µM | [50] 0.0311 µM | [51] 0.000774 µM | [52] 0.00822 µM | [66] 2.88 nM | [53] 0.0216 µM | [54] 0.00324 µM | [55] 0.0113 µM | [56] 0.00925 µM | [57] 0.203 µM | [67] 0.0246 µM

Cc1c2ccnc(O)c2cc2c(=O)c3cnccc3[nH]c12
inactive: [1] > 100 µM | [2] > 100 µM | [3] > 100 µM | [4] > 100 µM | [5] > 100 µM | [6] > 100 µM | [7] > 100 µM | [8] > 100 µM | [9] > 100 µM | [10] > 100 µM | [11] > 100 µM | [12] > 100 µM | [13] > 100 µM | [15] > 100 µM | [16] > 100 µM | [17] > 100 µM | [18] > 100 µM | [19] > 100 µM | [20] > 100 µM | [21] > 100 µM | [22] > 100 µM | [23] > 100 µM | [24] > 100 µM | [25] > 100 µM | [26] > 100 µM | [27] > 100 µM | [28] > 100 µM | [29] > 100 µM | [30] > 100 µM | [31] > 100 µM | [32] > 100 µM | [33] > 100 µM | [34] > 100 µM | [35] > 100 µM | [36] > 100 µM | [37] > 100 µM | [38] > 100 µM | [39] > 100 µM | [40] > 100 µM | [41] > 100 µM | [43] > 100 µM | [44] > 100 µM | [45] > 100 µM | [46] > 100 µM | [47] > 100 µM | [48] > 100 µM | [49] > 100 µM | [50] > 100 µM | [52] > 100 µM | [53] > 100 µM | [54] > 100 µM | [55] > 100 µM | [56] > 100 µM | [57] > 100 µM
> 100 µM: [14]

N#CC(C(=O)Nc1ccccc1)C1=C(Cl)C(=O)c2ccccc2C1=O (stereo not given)
18.5 µM: [14]
inactive: [1] 14.6 µM | [2] 47.1 µM | [3] 19.6 µM | [5] 18 µM | [6] 7.59 µM | [7] 17.5 µM | [8] 17.1 µM | [9] 17.8 µM | [11] 17.5 µM | [12] 18.1 µM | [13] 14.2 µM | [15] 4.23 µM | [16] 10.7 µM | [17] 17.9 µM | [18] 14.3 µM | [19] 26 µM | [20] 17.9 µM | [21] 13.6 µM | [22] 23 µM | [23] 21.5 µM | [24] 15.7 µM | [25] 19.9 µM | [26] 16.5 µM | [27] 7.66 µM | [29] 13.8 µM | [30] 17 µM | [31] 18.5 µM | [32] 33.9 µM | [33] 15.5 µM | [34] 15.6 µM | [35] 16.9 µM | [36] 17.6 µM | [37] 18.9 µM | [39] 17.6 µM | [40] 15.7 µM | [41] 17.9 µM | [42] 15.2 µM | [43] 17.1 µM | [44] 16.3 µM | [45] 16.1 µM | [46] 23.9 µM | [47] 15.7 µM | [48] 17.7 µM | [49] > 10 µM | [50] 20.1 µM | [52] 20.6 µM | [53] 21.7 µM | [54] 27.2 µM | [55] 2.05 µM | [56] 16.8 µM | [57] 13.9 µM | [67] 16.7 µM

O=C1C(CN2CCCCC2)CCCC1CN1CCCCC1 (stereo not given)
18.3 µM: [14]
inactive: [1] 8.26 µM | [3] > 92 µM | [4] 18 µM | [58] 16.4 µM | [8] 10.1 µM | [10] 43.2 µM | [59] 17.8 µM | [11] 16.2 µM | [12] 51.3 µM | [13] 15.4 µM | [16] 17.2 µM | [19] 20.1 µM | [60] 23.3 µM | [20] > 56.2 µM | [22] 14.4 µM | [23] 37 µM | [24] 16.9 µM | [25] 15 µM | [26] 20.7 µM | [68] 2.53 µM | [61] 18.5 µM | [62] 17 µM | [63] 16 µM | [29] 8.07 µM | [30] > 52.2 µM | [31] 22.9 µM | [64] 18.5 µM | [34] 18.6 µM | [35] 14.4 µM | [36] > 55.6 µM | [37] 18.5 µM | [65] 16.1 µM | [38] 2.24 µM | [39] 16.3 µM | [42] 30.2 µM | [43] 17.4 µM | [45] 32.1 µM | [46] > 100 µM | [47] 32.7 µM | [50] 21.4 µM | [51] 15.3 µM | [52] 5.45 µM | [66] 1640 nM | [54] > 100 µM | [55] 17.2 µM | [56] > 55.7 µM | [57] > 56.2 µM | [67] 21.2 µM
